Test results: publication PMC5218480 (PLoS ONE, 2017)

Test system: MV-4-11 cells
Experiment: Gene expression microarray analysis (Affymetrix PrimeView) and GSEA
Type: cell-based, human
Parameters: RFU PODN (11730768_x_at) / Fold change /veh PODN (11730768_x_at) / RFU LINC00158 (11744669_a_at) / Fold change /veh LINC00158 (11744669_a_at) / RFU DUSP10 (11751237_a_at) / Fold change /veh DUSP10 (11751237_a_at) / RFU ID3 (11757404_x_at) / Fold change /veh ID3 (11757404_x_at) / RFU PLEKHG5 (11737974_s_at) / Fold change /veh PLEKHG5 (11737974_s_at) / RFU LRRC4B (11730491_at) / Fold change /veh LRRC4B (11730491_at) / RFU GIMAP4 (11747438_a_at) / Fold change /veh GIMAP4 (11747438_a_at) / RFU KRT8 (11758183_x_at) / Fold change /veh KRT8 (11758183_x_at) / RFU CNN1 (11734310_a_at) / Fold change /veh CNN1 (11734310_a_at) / RFU VPS37D (11726825_at) / Fold change /veh VPS37D (11726825_at) / RFU C10orf10 (11716522_x_at) / Fold change /veh C10orf10 (11716522_x_at) / RFU KIR2DL2 /// KIR2DL4 /// KIR2DL5A /// KIR2DL5B /// KIR2DS1 /// KIR2DS2 /// KIR2DS3 /// KIR2DS4 /// KIR3DL3 /// KIR3DL3 /// KIR3DS1 (11738374_at) / Fold change /veh KIR2DL2 /// KIR2DL4 /// KIR2DL5A /// KIR2DL5B /// KIR2DS1 /// KIR2DS2 /// KIR2DS3 /// KIR2DS4 /// KIR3DL3 /// KIR3DL3 /// KIR3DS1 (11738374_at) / RFU C1QL1 (11718748_at) / Fold change /veh C1QL1 (11718748_at) / RFU TMPRSS4 (11747572_a_at) / Fold change /veh TMPRSS4 (11747572_a_at) / RFU HAMP (11756126_x_at) / Fold change /veh HAMP (11756126_x_at) / RFU RNFT2 (11725882_a_at) / Fold change /veh RNFT2 (11725882_a_at) / RFU NR4A2 (11747474_a_at) / Fold change /veh NR4A2 (11747474_a_at) / RFU ABCC12 (11746883_a_at) / Fold change /veh ABCC12 (11746883_a_at) / RFU TMEM136 (11760407_x_at) / Fold change /veh TMEM136 (11760407_x_at) / RFU CLDN22 /// WWC2 (11732394_at) / Fold change /veh CLDN22 /// WWC2 (11732394_at) / RFU HLA-DPB1 (11760878_x_at) / Fold change /veh HLA-DPB1 (11760878_x_at) / RFU SPINT1 (11716480_a_at) / Fold change /veh SPINT1 (11716480_a_at) / RFU GAP43 (11754022_s_at) / Fold change /veh GAP43 (11754022_s_at) / RFU A4GNT (11735810_at) / Fold change /veh A4GNT (11735810_at) / RFU PRB3 (11715151_x_at) / Fold change /veh PRB3 (11715151_x_at) / RFU TUBB4B (11761932_at) / Fold change /veh TUBB4B (11761932_at) / RFU CAPN14 (11732068_a_at) / Fold change /veh CAPN14 (11732068_a_at) / RFU TMCC2 (11721928_a_at) / Fold change /veh TMCC2 (11721928_a_at) / RFU IRGQ (11745062_a_at) / Fold change /veh IRGQ (11745062_a_at) / RFU FAM174B (11720279_a_at) / Fold change /veh FAM174B (11720279_a_at) / RFU TMPRSS4 (11748680_a_at) / Fold change /veh TMPRSS4 (11748680_a_at) / RFU FAM212B (11763350_a_at) / Fold change /veh FAM212B (11763350_a_at) / RFU PLEKHG5 (11743358_a_at) / Fold change /veh PLEKHG5 (11743358_a_at) / RFU ZSCAN30 (11745921_a_at) / Fold change /veh ZSCAN30 (11745921_a_at) / RFU CMKLR1 (11741424_a_at) / Fold change /veh CMKLR1 (11741424_a_at) / RFU LOC101060620 /// MAPK8IP1 (11723275_at) / Fold change /veh LOC101060620 /// MAPK8IP1 (11723275_at) / RFU SPTSSB (11747773_x_at) / Fold change /veh SPTSSB (11747773_x_at) / RFU PRSS12 (11739890_at) / Fold change /veh PRSS12 (11739890_at) / RFU BIN1 (11741810_x_at) / Fold change /veh BIN1 (11741810_x_at) / RFU WNT11 (11732464_a_at) / Fold change /veh WNT11 (11732464_a_at) / RFU C10orf10 (11716521_a_at) / Fold change /veh C10orf10 (11716521_a_at) / RFU C5orf56 (11738089_at) / Fold change /veh C5orf56 (11738089_at) / RFU CYB561 (11721691_x_at) / Fold change /veh CYB561 (11721691_x_at) / RFU ANKRD19P (11752326_a_at) / Fold change /veh ANKRD19P (11752326_a_at) / RFU OR2T12 /// OR2T33 /// OR2T8 (11738714_s_at) / Fold change /veh OR2T12 /// OR2T33 /// OR2T8 (11738714_s_at) / RFU VCAN (11748164_a_at) / Fold change /veh VCAN (11748164_a_at) / RFU JSRP1 (11732532_at) / Fold change /veh JSRP1 (11732532_at) / RFU KRTAP10-11 (11738290_x_at) / Fold change /veh KRTAP10-11 (11738290_x_at) / RFU MYO3A (11730013_a_at) / Fold change /veh MYO3A (11730013_a_at) / RFU EBF3 (11725865_a_at) / Fold change /veh EBF3 (11725865_a_at) / RFU CAMK2N1 (11719241_x_at) / Fold change /veh CAMK2N1 (11719241_x_at) / RFU C5orf56 (11738088_a_at) / Fold change /veh C5orf56 (11738088_a_at) / RFU OLFML3 (11715873_a_at) / Fold change /veh OLFML3 (11715873_a_at) / RFU LOC100653217 /// NTM (11731650_a_at) / Fold change /veh LOC100653217 /// NTM (11731650_a_at) / RFU MAPK11 (11762145_a_at) / Fold change /veh MAPK11 (11762145_a_at) / RFU FIZ1 (11724087_x_at) / Fold change /veh FIZ1 (11724087_x_at) / RFU OASL (11726364_x_at) / Fold change /veh OASL (11726364_x_at) / RFU SOX15 (11748057_x_at) / Fold change /veh SOX15 (11748057_x_at) / RFU CD79A (11719716_a_at) / Fold change /veh CD79A (11719716_a_at) / RFU HIST1H1D (11736915_at) / Fold change /veh HIST1H1D (11736915_at) / RFU CASKIN2 (11723855_a_at) / Fold change /veh CASKIN2 (11723855_a_at) / RFU LOC730098 (11760151_x_at) / Fold change /veh LOC730098 (11760151_x_at) / RFU OR4N2 (11742367_at) / Fold change /veh OR4N2 (11742367_at) / RFU PRRT2 (11749266_a_at) / Fold change /veh PRRT2 (11749266_a_at) / RFU SNX32 (11753110_a_at) / Fold change /veh SNX32 (11753110_a_at) / RFU CDHR5 (11726645_a_at) / Fold change /veh CDHR5 (11726645_a_at) / RFU RCAN1 (11760418_a_at) / Fold change /veh RCAN1 (11760418_a_at) / RFU FAM167A (11723789_a_at) / Fold change /veh FAM167A (11723789_a_at) / RFU FAM26E (11764081_at) / Fold change /veh FAM26E (11764081_at) / RFU ISYNA1 (11749810_s_at) / Fold change /veh ISYNA1 (11749810_s_at) / RFU ACY1 (11761880_at) / Fold change /veh ACY1 (11761880_at) / RFU 11764098_at / Fold change /veh 11764098_at / RFU SAMD14 (11745864_x_at) / Fold change /veh SAMD14 (11745864_x_at) / RFU NPB (11741838_a_at) / Fold change /veh NPB (11741838_a_at) / RFU TMPRSS6 (11731388_a_at) / Fold change /veh TMPRSS6 (11731388_a_at) / RFU KRTAP10-2 (11738614_at) / Fold change /veh KRTAP10-2 (11738614_at) / RFU ARHGAP8 /// PRR5-ARHGAP8 (11727945_x_at) / Fold change /veh ARHGAP8 /// PRR5-ARHGAP8 (11727945_x_at) / RFU KRTAP5-7 /// NADSYN1 (11734609_at) / Fold change /veh KRTAP5-7 /// NADSYN1 (11734609_at) / RFU RASL12 (11751679_a_at) / Fold change /veh RASL12 (11751679_a_at) / RFU CDKN2B (11736163_a_at) / Fold change /veh CDKN2B (11736163_a_at) / RFU PRF1 (11729649_at) / Fold change /veh PRF1 (11729649_at) / RFU, ZNF638 /// ZNF638-IT1 / Fold change vs veh, ZNF638 /// ZNF638-IT1 / RFU, PANK3 / Fold change vs veh, PANK3 / RFU, SH3YL1 / Fold change vs veh, SH3YL1 / RFU, ZEB2 / Fold change vs veh, ZEB2 / RFU, NRIP1 / Fold change vs veh, NRIP1 / RFU, PTTG1IP / Fold change vs veh, PTTG1IP / RFU, CAPN2 / Fold change vs veh, CAPN2 / RFU, MED14 / Fold change vs veh, MED14 / RFU, SNORA58 / Fold change vs veh, SNORA58 / RFU, C1orf63 / Fold change vs veh, C1orf63 / RFU, LRRFIP1 / Fold change vs veh, LRRFIP1 / RFU, NDUFAF7 / Fold change vs veh, NDUFAF7 / RFU, SLC12A2 / Fold change vs veh, SLC12A2 / RFU, IBTK / Fold change vs veh, IBTK / RFU, ESF1 / Fold change vs veh, ESF1 / Fold change vs veh, TMEM50B / RFU, TAOK1 / Fold change vs veh, TAOK1 / RFU, ACBD3 / Fold change vs veh, ACBD3 / RFU, TMA16 / Fold change vs veh, TMA16 / RFU, RWDD3 / Fold change vs veh, RWDD3 / RFU, BCAT1 / Fold change vs veh, BCAT1 / RFU, EDEM3 / Fold change vs veh, EDEM3 / RFU, TMEM33 / Fold change vs veh, TMEM33 / RFU, WDR75 / Fold change vs veh, WDR75 / RFU, AHCTF1 / Fold change vs veh, AHCTF1 / RFU, TFRC / Fold change vs veh, TFRC / RFU, ZDHHC17 / Fold change vs veh, ZDHHC17 / RFU, NOM1 / Fold change vs veh, NOM1 / RFU, ARL8B / Fold change vs veh, ARL8B / RFU, ZBTB11 / Fold change vs veh, ZBTB11 / RFU, TAMM41 / Fold change vs veh, TAMM41 / RFU, KIAA1704 /// LOC100996395 / Fold change vs veh, KIAA1704 /// LOC100996395 / RFU, ING1 / Fold change vs veh, ING1 / RFU, TRMT61B / Fold change vs veh, TRMT61B / RFU, FUBP3 / Fold change vs veh, FUBP3 / RFU, TP53 / Fold change vs veh, TP53 / RFU, TNKS2 / Fold change vs veh, TNKS2 / RFU, ZFP14 / Fold change vs veh, ZFP14 / RFU, ACTR2 / Fold change vs veh, ACTR2 / RFU, PPP3R1 / Fold change vs veh, PPP3R1 / RFU, PIK3R1 / Fold change vs veh, PIK3R1 / RFU, HNRNPA1 / Fold change vs veh, HNRNPA1 / RFU, RNF170 / Fold change vs veh, RNF170 / RFU, ZNF28 / Fold change vs veh, ZNF28 / RFU, RNGTT / Fold change vs veh, RNGTT / RFU, OGT / Fold change vs veh, OGT / RFU, BRD1 / Fold change vs veh, BRD1 / RFU, MARS / Fold change vs veh, MARS / RFU, ZNF655 / Fold change vs veh, ZNF655 / RFU, FAHD1 / Fold change vs veh, FAHD1 / RFU, BDP1 / Fold change vs veh, BDP1 / RFU, LRRCC1 / Fold change vs veh, LRRCC1 / RFU, ARID1A / Fold change vs veh, ARID1A / RFU, ZNF146 / Fold change vs veh, ZNF146 / RFU, ZNF330 / Fold change vs veh, ZNF330 / RFU, GPN3 / Fold change vs veh, GPN3 / RFU, C9orf123 / Fold change vs veh, C9orf123 / RFU, N4BP2L2 / Fold change vs veh, N4BP2L2 / RFU, ARFIP1 / Fold change vs veh, ARFIP1 / RFU, FAM179B / Fold change vs veh, FAM179B / RFU, BCL10 / Fold change vs veh, BCL10 / RFU, UHRF1BP1L / Fold change vs veh, UHRF1BP1L / RFU, BET1 / Fold change vs veh, BET1 / RFU, CNOT2 / Fold change vs veh, CNOT2 / RFU, ZNF268 / Fold change vs veh, ZNF268 / Fold change vs veh, ZNF507 / RFU, DGCR2 / Fold change vs veh, DGCR2 / RFU, WDSUB1 / Fold change vs veh, WDSUB1 / Fold change vs veh, HSP90B1 /// MIR3652 / RFU, ADSS / Fold change vs veh, ADSS / RFU, GK / Fold change vs veh, GK / RFU, ZNF148 / Fold change vs veh, ZNF148 / RFU, TAF9 / Fold change vs veh, TAF9 / RFU, SLC1A5 / Fold change vs veh, SLC1A5 / RFU, SLMO2 / Fold change vs veh, SLMO2 / RFU, ABCC4 / Fold change vs veh, ABCC4 / RFU, LOC101060439 /// RAP1B / Fold change vs veh, LOC101060439 /// RAP1B / RFU, RFX7 / Fold change vs veh, RFX7 / RFU, GTPBP10 / Fold change vs veh, GTPBP10 / RFU, CNEP1R1 / Fold change vs veh, CNEP1R1 / RFU, BIVM-ERCC5 /// ERCC5 / Fold change vs veh, BIVM-ERCC5 /// ERCC5 / RFU, ILF3 / Fold change vs veh, ILF3 / RFU 11762660_at / Fold change /veh 11762660_at / RFU VCAN (11757783_s_at) / Fold change /veh VCAN (11757783_s_at) / RFU DDX43 (11728927_at) / Fold change /veh DDX43 (11728927_at) / RFU KRT8 (11758188_x_at) / Fold change /veh KRT8 (11758188_x_at) / RFU NKD1 (11759106_at) / Fold change /veh NKD1 (11759106_at) / RFU SRD5A1 (11742802_a_at) / Fold change /veh SRD5A1 (11742802_a_at) / RFU TPSAB1 /// TPSB2 (11721975_s_at) / Fold change /veh TPSAB1 /// TPSB2 (11721975_s_at) / RFU GSTM3 (11746129_a_at) / Fold change /veh GSTM3 (11746129_a_at) / RFU IL23R (11737362_x_at) / Fold change /veh IL23R (11737362_x_at) / RFU TMEM51 (11727254_a_at) / Fold change /veh TMEM51 (11727254_a_at) / RFU PIWIL2 (11732686_x_at) / Fold change /veh PIWIL2 (11732686_x_at) / RFU ORM1 (11744905_x_at) / Fold change /veh ORM1 (11744905_x_at) / RFU CCDC152 (11743942_at) / Fold change /veh CCDC152 (11743942_at) / RFU ECM1 (11717891_a_at) / Fold change /veh ECM1 (11717891_a_at) / RFU IL23R (11748794_a_at) / Fold change /veh IL23R (11748794_a_at) / RFU TNFAIP8L3 (11732012_x_at) / Fold change /veh TNFAIP8L3 (11732012_x_at) / RFU MBOAT4 (11741988_at) / Fold change /veh MBOAT4 (11741988_at) / RFU 11764193_at / Fold change /veh 11764193_at / RFU TMEM53 (11763286_at) / Fold change /veh TMEM53 (11763286_at) / RFU MAGEB2 (11727129_at) / Fold change /veh MAGEB2 (11727129_at) / RFU TMEM200A (11744735_a_at) / Fold change /veh TMEM200A (11744735_a_at) / RFU CCDC152 (11751479_a_at) / Fold change /veh CCDC152 (11751479_a_at) / RFU FAM211A (11726209_a_at) / Fold change /veh FAM211A (11726209_a_at) / RFU RGS16 (11746705_a_at) / Fold change /veh RGS16 (11746705_a_at) / RFU VCAN (11755009_s_at) / Fold change /veh VCAN (11755009_s_at) / RFU RHOB (11743442_s_at) / Fold change /veh RHOB (11743442_s_at) / RFU RGS16 (11720943_a_at) / Fold change /veh RGS16 (11720943_a_at) / RFU RGS16 (11720944_at) / Fold change /veh RGS16 (11720944_at) / RFU, VPS4B / Fold change vs veh, VPS4B / RFU, CREB1 / Fold change vs veh, CREB1 / RFU, DNAJC13 / Fold change vs veh, DNAJC13 / RFU, GNAQ / Fold change vs veh, GNAQ / RFU, CDK5R1 / Fold change vs veh, CDK5R1 / RFU, ZRANB3 / Fold change vs veh, ZRANB3 / RFU, CUL4A / Fold change vs veh, CUL4A / RFU, CCNY / Fold change vs veh, CCNY / RFU, UFL1 / Fold change vs veh, UFL1 / RFU, COG3 / Fold change vs veh, COG3 / RFU, DIAPH2 / Fold change vs veh, DIAPH2 / RFU, SKA2 / Fold change vs veh, SKA2 / RFU, AFF3 / Fold change vs veh, AFF3 / RFU, LMF1 / Fold change vs veh, LMF1 / RFU, IPO11 / Fold change vs veh, IPO11 / RFU, DFFB / Fold change vs veh, DFFB / RFU, FOXP1 / Fold change vs veh, FOXP1 / RFU, CARD8 / Fold change vs veh, CARD8 / RFU, STRN3 / Fold change vs veh, STRN3 / RFU, ADK / Fold change vs veh, ADK / RFU, RASSF2 / Fold change vs veh, RASSF2 / RFU, WIPF1 / Fold change vs veh, WIPF1 / RFU, LARP1B / Fold change vs veh, LARP1B / RFU, RASA1 / Fold change vs veh, RASA1 / RFU, RB1 / Fold change vs veh, RB1 / RFU, PPFIA1 / Fold change vs veh, PPFIA1 / RFU, MAT2A / Fold change vs veh, MAT2A / RFU, CCT5 / Fold change vs veh, CCT5 / RFU, WDR92 / Fold change vs veh, WDR92 / RFU, CUX1 / Fold change vs veh, CUX1 / RFU, TTC7A / Fold change vs veh, TTC7A / RFU, TMEM135 / Fold change vs veh, TMEM135 / RFU, DEPTOR / Fold change vs veh, DEPTOR / RFU, CPM / Fold change vs veh, CPM / RFU, DNAJB6 / Fold change vs veh, DNAJB6 / RFU, CACNA2D3 / Fold change vs veh, CACNA2D3 / RFU, DTX4 / Fold change vs veh, DTX4 / RFU, TFCP2 / Fold change vs veh, TFCP2 / RFU, GMCL1 /// GMCL1P1 / Fold change vs veh, GMCL1 /// GMCL1P1 / RFU, AEBP2 / Fold change vs veh, AEBP2 / RFU, SNHG1 /// SNORD22 /// SNORD25 /// SNORD26 /// SNORD27 /// SNORD28 /// SNORD29 /// SNORD31 / Fold change vs veh, SNHG1 /// SNORD22 /// SNORD25 /// SNORD26 /// SNORD27 /// SNORD28 /// SNORD29 /// SNORD31 / Fold change (Aza/veh), C12orf56 (ProbeSet 11735607_a_at) / Fold change (ACY-1035/veh), C12orf56 (ProbeSet 11735607_a_at) / Fold change (Aza/veh), FGFR1OP (ProbeSet 11751329_s_at) / Fold change (ACY-1035/veh), FGFR1OP (ProbeSet 11751329_s_at) / Fold change (Aza/veh), VPS36 (ProbeSet 11739960_a_at) / Fold change (ACY-1035/veh), VPS36 (ProbeSet 11739960_a_at) / RFU SYPL1 (11715823_x_at) / Fold change /veh SYPL1 (11715823_x_at) / RFU IGFBP7 (11715501_s_at) / Fold change /veh IGFBP7 (11715501_s_at) / RFU REEP3 (11722064_at) / Fold change /veh REEP3 (11722064_at) / RFU IGLL1 (11728026_x_at) / Fold change /veh IGLL1 (11728026_x_at): dose or concentration left out as unconfirmed
Details: ProbeSet 11740528_a_at; LIST D

## Nc1ncn([C@@H]2O[C@H](CO)[C@@H](O)[C@H]2O)c(=O)n1 [azacitidine]
  RFU, AFF3: 349.86 RFU
